In the NIST ThermoML archive (doi:10.1021/acs.jced.5b00802):

Assays:
[1] = 101.33 kPa, Liquid; for speed of sound: Sing-around technique in a fixed-path interferometer; for mass density: Vibrating tube method
[2] = refractive index (Na D-line) (dimensionless); conditions: 101.33 kPa, Liquid, Standard Abbe refractometry
[3] = xn = mol fraction of the nth substance listed; conditions: 298.15 K, 100 kPa, Liquid; for speed of sound: Frequency=3 MHz, Sing-around technique in a fixed-path interferometer; for mass density: Vibrating tube method
[4] = refractive index (Na D-line) (dimensionless); xn = mol fraction of the nth substance listed; conditions: 298.15 K, 100 kPa, Liquid, Standard Abbe refractometry

CCCCNCCCC [dibutylamine]
Conditions	mass density, 293.15 K [kg/m3]	mass density, 298.15 K [kg/m3]	mass density, 303.15 K [kg/m3]	refractive index, 293.15 K	refractive index, 298.15 K	refractive index, 303.15 K	speed of sound, 293.15 K [m/s]	speed of sound, 298.15 K [m/s]	speed of sound, 303.15 K [m/s]
[1]	759.695	755.525	751.458	–	–	–	1261.1	1241.5	1222.5
[2]	–	–	–	1.41724	1.41488	1.41253	–	–	–

CCCNCCC [dipropylamine]
Conditions	mass density, 293.15 K [kg/m3]	mass density, 298.15 K [kg/m3]	mass density, 303.15 K [kg/m3]	refractive index, 293.15 K	refractive index, 298.15 K	refractive index, 303.15 K	speed of sound, 293.15 K [m/s]	speed of sound, 298.15 K [m/s]	speed of sound, 303.15 K [m/s]
[1]	738.194	733.618	729.098	–	–	–	1209.4	1187.7	1167.2
[2]	–	–	–	1.40432	1.40139	1.39883	–	–	–

CN(C)C=O [dimethylformamide]
Conditions	mass density, 293.15 K [kg/m3]	mass density, 298.15 K [kg/m3]	mass density, 303.15 K [kg/m3]	refractive index, 293.15 K	refractive index, 298.15 K	refractive index, 303.15 K	speed of sound, 293.15 K [m/s]	speed of sound, 298.15 K [m/s]	speed of sound, 303.15 K [m/s]
[1]	948.881	944.081	939.361	–	–	–	1476.8	1457.2	1438.2
[2]	–	–	–	1.43055	1.42828	1.42603	–	–	–

CCCCCCN [1-hexanamine]
Conditions	mass density, 293.15 K [kg/m3]	mass density, 298.15 K [kg/m3]	mass density, 303.15 K [kg/m3]	refractive index, 298.15 K	speed of sound, 293.15 K [m/s]	speed of sound, 298.15 K [m/s]	speed of sound, 303.15 K [m/s]
[1]	764.423	760.073	755.848	–	1324	1303.6	1283.6
[2]	–	–	–	1.41577	–	–	–

CCCCCCN [1-hexanamine] + CN(C)C=O
Conditions	mass density, [3] [kg/m3]	refractive index, [4]	speed of sound, [3] [m/s]
x2 = 0.0506	765.582	1.41613	1307.1
x2 = 0.0992	771.096	–	1310.8
x2 = 0.1725	779.897	1.41707	1316.7
x2 = 0.2548	790.546	1.41779	1324.2
x2 = 0.3476	803.611	1.4187	1333.7
x2 = 0.4461	818.861	1.4198	1345.5
x2 = 0.55	836.751	1.42107	1360.1
x2 = 0.6022	846.551	–	1368.3
x2 = 0.6558	–	1.42257	–
x2 = 0.7056	867.688	–	1387.1
x2 = 0.7573	–	1.42411	–
x2 = 0.7996	889.217	–	1406.8
x2 = 0.8492	901.602	1.42564	1418.4
x2 = 0.8982	914.549	–	1430.4
x2 = 0.953	929.99	1.42747	1444.7

CCCCNCCCC [dibutylamine] + CN(C)C=O
Conditions	mass density, [3] [kg/m3]	refractive index, [4]	speed of sound, [3] [m/s]
x2 = 0.0642	761.171	–	1246.4
x2 = 0.1038	–	1.41553	–
x2 = 0.1134	765.782	–	1250.5
x2 = 0.1647	770.882	–	1255
x2 = 0.2076	–	1.41628	–
x2 = 0.2121	775.872	–	1259.5
x2 = 0.2734	782.835	–	1266.1
x2 = 0.3213	788.624	–	1271.6
x2 = 0.3608	–	1.41761	–
x2 = 0.4114	800.702	–	1283.5
x2 = 0.4526	806.766	–	1289.7
x2 = 0.4897	–	1.419	–
x2 = 0.5072	815.344	–	1298.6
x2 = 0.5574	823.977	–	1307.9
x2 = 0.5933	–	1.42034	–
x2 = 0.5996	831.688	–	1316.3
x2 = 0.6514	842.013	–	1328.1
x2 = 0.6869	849.571	–	1336.8
x2 = 0.688	–	1.42178	–
x2 = 0.7361	860.924	–	1350.4
x2 = 0.7709	–	1.42323	–
x2 = 0.7904	874.714	–	1367.5
x2 = 0.8398	–	1.42459	–
x2 = 0.8418	889.103	–	1385.9
x2 = 0.8921	904.666	–	1406.1
x2 = 0.8989	–	1.42587	–
x2 = 0.9471	923.65	–	1431
x2 = 0.9497	–	1.42706	–
x2 = 0.9738	–	1.42765	–

CCCCN [1-butanamine]
Conditions	mass density, 293.15 K [kg/m3]	mass density, 298.15 K [kg/m3]	mass density, 303.15 K [kg/m3]	refractive index, 293.15 K	refractive index, 298.15 K	refractive index, 303.15 K	speed of sound, 293.15 K [m/s]	speed of sound, 298.15 K [m/s]	speed of sound, 303.15 K [m/s]
[1]	737.048	732.231	727.452	–	–	–	1268.3	1246	1224.6
[2]	–	–	–	1.4006	1.39786	1.395	–	–	–
